Measurements taken from ChEMBL document CHEMBL1142084, “In vitro activities of tigecycline and eight other antimicrobials against different Nocardia species identified by molecular methods” (2007).
In brackets after ≈: the same amount, converted by molar mass.

Tests used:
Type in all cases: functional
Nocardia cyriacigeorgica = experiment: Antimicrobial activity against Nocardia cyriacigeorgica after 72 hrs by microdilution method
Nocardia transvalensis = experiment: Antimicrobial activity against Nocardia transvalensis after 72 hrs by microdilution method
Nocardia carnea = experiment: Antimicrobial activity against Nocardia carnea after 72 hrs by microdilution method
Nocardia abscessus = experiment: Antimicrobial activity against Nocardia abscessus after 72 hrs by microdilution method
Nocardia farcinica = experiment: Antimicrobial activity against Nocardia farcinica after 72 hrs by microdilution method
[1] = system: Nocardia otitidiscaviarum; experiment: Antimicrobial activity against Nocardia otitidiscaviarum after 72 hrs by microdilution method
Nocardia beijingensis = experiment: Antimicrobial activity against Nocardia beijingensis after 72 hrs by microdilution method
Nocardia brasiliensis = experiment: Antimicrobial activity against Nocardia brasiliensis after 72 hrs by microdilution method
Nocardia nova = experiment: Antimicrobial activity against Nocardia nova after 72 hrs by microdilution method
Nocardia sp. = experiment: Antimicrobial activity against Nocardia sp. after 72 hrs by microdilution method
Nocardia veterana = experiment: Antimicrobial activity against Nocardia veterana after 72 hrs by microdilution method

Row | MIC (Nocardia cyriacigeorgica) | MIC (Nocardia transvalensis) | MIC (Nocardia carnea) | MIC (Nocardia abscessus) | MIC (Nocardia farcinica) | MIC [1] | MIC (Nocardia beijingensis) | MIC (Nocardia brasiliensis) | MIC (Nocardia nova) | MIC (Nocardia sp.) | MIC (Nocardia veterana) | SMILES
1 | 0.12 µg/mL (≈ 0.356 µM) | 1 µg/mL (≈ 2.96 µM) | ≤ 0.06 µg/mL | ≤ 0.06 µg/mL | 0.12 µg/mL (≈ 0.356 µM) | ≤ 0.06 µg/mL | ≤ 0.06 µg/mL | 1 µg/mL (≈ 2.96 µM) | 0.12 µg/mL (≈ 0.356 µM) | ≤ 0.06 µg/mL | 0.25 µg/mL (≈ 0.741 µM) | CC(=O)NC[C@H]1CN(c2ccc(N3CCOCC3)c(F)c2)C(=O)O1 [LINEZOLID]
2 | ≤ 0.06 µg/mL | > 64 µg/mL | 1 µg/mL (≈ 2.61 µM) | 0.25 µg/mL (≈ 0.652 µM) | 2 µg/mL (≈ 5.22 µM) | 1 µg/mL (≈ 2.61 µM) | 2 µg/mL (≈ 5.22 µM) | 1 µg/mL (≈ 2.61 µM) | 0.5 µg/mL (≈ 1.3 µM) | ≤ 0.06 µg/mL | 0.12 µg/mL (≈ 0.313 µM) | C[C@@H](O)[C@H]1C(=O)N2C(C(=O)O)=C(S[C@@H]3CN[C@H](C(=O)N(C)C)C3)[C@H](C)[C@H]12 [MEROPENEM]
3 | ≤ 0.06 µg/mL | 1 µg/mL (≈ 2.19 µM) | 0.5 µg/mL (≈ 1.09 µM) | ≤ 0.06 µg/mL | 1 µg/mL (≈ 2.19 µM) | 0.5 µg/mL (≈ 1.09 µM) | ≤ 0.06 µg/mL | 1 µg/mL (≈ 2.19 µM) | 1 µg/mL (≈ 2.19 µM) | 0.25 µg/mL (≈ 0.546 µM) | 1 µg/mL (≈ 2.19 µM) | CN(C)c1ccc(O)c2c1C[C@H]1C[C@H]3[C@H](N(C)C)C(O)=C(C(N)=O)C(=O)[C@@]3(O)C(O)=C1C2=O [MINOCYCLINE]
4 | ≤ 0.06 µg/mL | 0.12 µg/mL (≈ 0.299 µM) | ≤ 0.06 µg/mL | 1 µg/mL (≈ 2.49 µM) | ≤ 0.06 µg/mL | ≤ 0.06 µg/mL | ≤ 0.06 µg/mL | ≤ 0.06 µg/mL | 2 µg/mL (≈ 4.98 µM) | ≤ 0.06 µg/mL | 0.5 µg/mL (≈ 1.25 µM) | COc1c(N2C[C@@H]3CCCN[C@@H]3C2)c(F)cc2c(=O)c(C(=O)O)cn(C3CC3)c12 [MOXIFLOXACIN]
5 | ≤ 0.06 µg/mL | 2 µg/mL (≈ 3.41 µM) | ≤ 0.06 µg/mL | ≤ 0.06 µg/mL | 1 µg/mL (≈ 1.71 µM) | ≤ 0.06 µg/mL | 0.25 µg/mL (≈ 0.427 µM) | ≤ 0.06 µg/mL | 0.5 µg/mL (≈ 0.854 µM) | ≤ 0.06 µg/mL | 0.12 µg/mL (≈ 0.205 µM) | CN(C)c1cc(NC(=O)CNC(C)(C)C)c(O)c2c1C[C@H]1C[C@H]3[C@H](N(C)C)C(O)=C(C(N)=O)C(=O)[C@@]3(O)C(O)=C1C2=O [TIGECYCLINE]

More lines, now with the values behind:

Row | SMILES | MIC (Nocardia cyriacigeorgica) | MIC (Nocardia transvalensis) | MIC (Nocardia carnea) | MIC (Nocardia abscessus) | MIC (Nocardia farcinica) | MIC [1] | MIC (Nocardia beijingensis) | MIC (Nocardia brasiliensis) | MIC (Nocardia nova) | MIC (Nocardia sp.) | MIC (Nocardia veterana)
6 | NCC[C@H](O)C(=O)N[C@@H]1C[C@H](N)[C@@H](O[C@H]2O[C@H](CN)[C@@H](O)[C@H](O)[C@H]2O)[C@H](O)[C@H]1O[C@H]1O[C@H](CO)[C@@H](O)[C@H](N)[C@H]1O [AMIKACIN] | ≤ 0.06 µg/mL | 32 µg/mL (≈ 54.6 µM) | 0.5 µg/mL (≈ 0.854 µM) | ≤ 0.06 µg/mL | 1 µg/mL (≈ 1.71 µM) | 1 µg/mL (≈ 1.71 µM) | ≤ 0.06 µg/mL | 1 µg/mL (≈ 1.71 µM) | 0.12 µg/mL (≈ 0.205 µM) | 0.25 µg/mL (≈ 0.427 µM) | 0.25 µg/mL (≈ 0.427 µM)
7 | C[C@@H](O)[C@H]1C(=O)N2C(C(=O)O)=C(S[C@@H]3CN[C@H](C(=O)Nc4cccc(C(=O)O)c4)C3)[C@H](C)[C@H]12 [ERTAPENEM] | ≤ 0.06 µg/mL | > 64 µg/mL | 2 µg/mL (≈ 4.21 µM) | 0.5 µg/mL (≈ 1.05 µM) | 4 µg/mL (≈ 8.41 µM) | 1 µg/mL (≈ 2.1 µM) | 2 µg/mL (≈ 4.21 µM) | 2 µg/mL (≈ 4.21 µM) | 0.5 µg/mL (≈ 1.05 µM) | 0.25 µg/mL (≈ 0.526 µM) | 0.25 µg/mL (≈ 0.526 µM)
8 | C[C@@H](O)[C@H]1C(=O)N2C(C(=O)O)=C(SCCNC=N)C[C@H]12 [IMIPENEM ANHYDROUS] | ≤ 0.06 µg/mL | > 64 µg/mL | 0.5 µg/mL (≈ 1.67 µM) | 0.5 µg/mL (≈ 1.67 µM) | 1 µg/mL (≈ 3.34 µM) | 0.5 µg/mL (≈ 1.67 µM) | 0.5 µg/mL (≈ 1.67 µM) | 1 µg/mL (≈ 3.34 µM) | 0.12 µg/mL (≈ 0.401 µM) | ≤ 0.06 µg/mL | ≤ 0.06 µg/mL
